We go through 14 compounds from US9248117B2, “Substituted N,N-dihaloamines as antimicrobials” (priority 2010, dated 2016).

Converted amounts (≈) assume the structure as drawn. Some results are limits rather than exact numbers.

The subject of series [1] is E. coli 25922. The series is described as follows: MBC/MFC against E. coli 25922. The class given is cell-based. Conditions: Escherichia coli, Table 4.
Series [2] concerns L929 cells. Put plainly: CT50 cytotoxicity in L929 cells. To be noted: pH 7 phosphate; Table 4.
Series [3] relates to C. albicans 10231. The series is described as follows: MBC/MFC against C. albicans 10231. To be noted: Candida albicans, Table 4. The class given is cell-based.
Series [4] deals with S. aureus 29213. The series is described as follows: MBC/MFC against S. aureus 29213. The class given is cell-based. Conditions: Staphylococcus aureus, Table 4.

Consider `COCCN1C(=O)C(C)(C)N(Cl)C1(C)C` [Compound 39-01, 1-chloro-3-(2-methoxyethyl)-2,2,5,5-tetramethylimidazolidin-4-one], for which the MBC worked out at 2 µg/mL (≈ 8.52 µM) in series [1] (pH 4 acetate), 128 µg/mL (≈ 545 µM) in series [1] (pH 7 phosphate), 2 µg/mL (≈ 8.52 µM) in series [4] (pH 4 acetate) and 128 µg/mL (≈ 545 µM) in series [4] (pH 7 phosphate). Also, the “CT50 L929 cells” value in series [2] stood at 0.08 mM. Further, the MFC came to 8 µg/mL (≈ 34.1 µM) in series [3] (pH 4 acetate) and 256 µg/mL (≈ 1090 µM) in series [3] (pH 7 phosphate).

As for `COCCOCCOCCN1C(=O)C(C)(C)N(Cl)C1(C)C` [Compound 39-04, 1-Chloro-3-(2-(2-(2-methoxyethoxy)ethoxy)ethyl)-2,2,5,5-tetramethylimidazolidin-4-one], the MBC in series [1] (pH 4 acetate) stood at 2 µg/mL (≈ 6.2 µM); in series [1] (pH 7 phosphate), 256 µg/mL (≈ 793 µM); in series [4] (pH 4 acetate), 2 µg/mL (≈ 6.2 µM); in series [4] (pH 7 phosphate), 256 µg/mL (≈ 793 µM). Moreover, the “CT50 L929 cells” value in series [2] was determined as 0.14 mM. The MFC stood at 16 µg/mL (≈ 49.6 µM) in series [3] (pH 4 acetate) and 1020 µg/mL (≈ 3170 µM) in series [3] (pH 7 phosphate).

In the case of `COCCOCCOCCOCCN1C(=O)C(C)(C)N(Cl)C1(C)C` [Compound 39-12, 1-chloro-2,2,5,5-tetramethyl-3-(2,5,8,11-tetraoxatridecan-13-yl)imidazolidin-4-one], the MBC worked out at 8 µg/mL (≈ 21.8 µM) in series [1] (pH 4 acetate), 256 µg/mL (≈ 698 µM) in series [1] (pH 7 phosphate), 8 µg/mL (≈ 21.8 µM) in series [4] (pH 4 acetate) and 256 µg/mL (≈ 698 µM) in series [4] (pH 7 phosphate). In addition, the “CT50 L929 cells” value in series [2] stood at 0.18 mM. For the same compound, the figures for the MFC in series [3] (pH 4 acetate) and in series [3] (pH 7 phosphate) were 16 µg/mL (≈ 43.6 µM) and greater than 1020 µg/mL, respectively.

With `CC1(C)C(=O)N(CC(O)CO)C(C)(C)N1Cl` (centres unmarked) [Compound 39-27, 1-chloro-3-(2,3-dihydroxypropyl)-2,2,5,5-tetramethylimidazolidin-4-one], the MBC in series [1] (pH 4 acetate) was found to be 4 µg/mL (≈ 16 µM); in series [1] (pH 7 phosphate), 512 µg/mL (≈ 2040 µM); in series [4] (pH 4 acetate) it was 4 µg/mL (≈ 16 µM); in series [4] (pH 7 phosphate), 1020 µg/mL (≈ 4080 µM). Moreover, in series [2], the “CT50 L929 cells” value is 0.14 mM. Besides, the MFC is 16 µg/mL (≈ 63.8 µM) in series [3] (pH 4 acetate) and greater than 2050 µg/mL in series [3] (pH 7 phosphate).

As to `COCCOCCOCC[N+]1(C)CC(C)(C)N(Cl)C(C)(C)C1.[Cl-]` [Compound 39-106, 4-chloro-1-(2-(2-(2-methoxyethoxy)ethoxy)ethyl)-1,3,3,5,5-pentamethylpiperazin-1-ium chloride], the MBC was 16 µg/mL in series [1] (pH 4 acetate), 256 µg/mL in series [1] (pH 7 phosphate), 32 µg/mL in series [4] (pH 4 acetate) and greater than 512 µg/mL in series [4] (pH 7 phosphate). Further, the “CT50 L929 cells” value in series [2] stood at 0.24 mM. The MFC in series [3] (pH 4 acetate) was 64 µg/mL; in series [3] (pH 7 phosphate) it was greater than 512 µg/mL.

In the case of `CC1(C)CN(CCO)C(=O)C(C)(C)N1Cl` [Compound 39-108, 4-chloro-1-(2-hydroxyethyl)-3,3,5,5-tetramethylpiperazin-2-one], the MBC in series [1] (pH 4 acetate) turned out to be 1 µg/mL (≈ 4.26 µM); in series [1] (pH 7 phosphate) it was 32 µg/mL (≈ 136 µM); in series [4] (pH 4 acetate), 2 µg/mL (≈ 8.52 µM); in series [4] (pH 7 phosphate), 128 µg/mL (≈ 545 µM). The “CT50 L929 cells” value in series [2] was determined as 0.1 mM. For the same compound, the MFC in series [3] (pH 4 acetate) came to 8 µg/mL (≈ 34.1 µM); in series [3] (pH 7 phosphate), 64 µg/mL (≈ 273 µM).

As for `COCCOCCOCC[N+](C)(C)CCN1CC(C)(C)N(Cl)C1=O` [Compound 39-110, 2-(3-chloro-4,4-dimethyl-2-oxoimidazolidin-1-yl)-N-(2-(2-(2-methoxyethoxy)ethoxy)ethyl)-N,N-dimethylethanaminium 4-methylbenzenesulfonate], the MBC in series [1] (pH 4 acetate) was 128 µg/mL; in series [1] (pH 7 phosphate), 1020 µg/mL; in series [4] (pH 4 acetate) it was 128 µg/mL; in series [4] (pH 7 phosphate), 2050 µg/mL. Besides, the “CT50 L929 cells” value in series [2] is given as 3.9 mM. The minimum fungicidal concentration (MFC) in series [3] (pH 4 acetate) was 256 µg/mL; in series [3] (pH 7 phosphate), greater than 2050 µg/mL.

In the case of `COCCOCCN1C(=O)C(C)(C)N(Cl)C1(C)C` [Compound 39-112, 1-chloro-3-(2-(2-methoxyethoxy)ethyl)-2,2,5,5-tetramethylimidazolidin-4-one], the MBC in series [1] (pH 4 acetate) amounted to 4 µg/mL (≈ 14.3 µM); in series [1] (pH 7 phosphate), 128 µg/mL (≈ 459 µM); in series [4] (pH 4 acetate), 8 µg/mL (≈ 28.7 µM); in series [4] (pH 7 phosphate) it was 128 µg/mL (≈ 459 µM). Besides, in series [2], the “CT50 L929 cells” value is reported as 0.16 mM. The figures for the MFC in series [3] (pH 4 acetate) and in series [3] (pH 7 phosphate) were 8 µg/mL (≈ 28.7 µM) and 1020 µg/mL (≈ 3670 µM), respectively.

Take `COCCOCCOCCCN1C(=O)C(C)(C)N(Cl)C1(C)C` [Compound 39-114, 1-chloro-3-(3-(2-(2-methoxyethoxy)ethoxy)propyl)-2,2,5,5-tetramethylimidazolidin-4-one]: the MBC in series [1] (pH 4 acetate) was found to be 8 µg/mL (≈ 23.7 µM); in series [1] (pH 7 phosphate), 256 µg/mL (≈ 760 µM); in series [4] (pH 4 acetate) it was 4 µg/mL (≈ 11.9 µM); in series [4] (pH 7 phosphate), 256 µg/mL (≈ 760 µM). In series [2], the “CT50 L929 cells” value was found to be 0.24 mM. Moreover, the MFC in series [3] (pH 4 acetate) is 8 µg/mL (≈ 23.7 µM); in series [3] (pH 7 phosphate), greater than 1020 µg/mL.

Regarding `COCCOCCOCCOCCOCCOCCOCCOCCOCCOCCOCCOCCOCCOCCN1C(=O)C(C)(C)N(Cl)C1(C)C` [Compound 39-116, 1-chloro-2,2,5,5-tetramethyl-3-(2,5,8,11,14,17,20,23,26,29,32,35,38,41-tetradecaoxatritetracontan-43-yl)imidazolidin-4-one], the MBC in series [1] (pH 4 acetate) amounted to 16 µg/mL (≈ 19.8 µM); in series [1] (pH 7 phosphate), 512 µg/mL (≈ 634 µM); in series [4] (pH 4 acetate), 16 µg/mL (≈ 19.8 µM); in series [4] (pH 7 phosphate), 1020 µg/mL (≈ 1270 µM). Also, in series [2], the “CT50 L929 cells” value worked out at 4.1 mM. The values for the MFC in series [3] (pH 4 acetate) and in series [3] (pH 7 phosphate) were 128 µg/mL (≈ 159 µM) and greater than 2050 µg/mL, respectively.

As for `COCCOCCOCCOCCOCCOCCOCCOCCOCCOCCOCCOCCOCCOCCOCCOCCOCCOCCOCCOCCOCCOCCOCCOCCOCCOCCOCCOCCOCCOCCOCCOCCOCCOCCOCCOCCOCCOCCOCCN1C(=O)C(C)(C)N(Cl)C1(C)C` [Compound 39-118, 1-chloro-2,2,5,5-tetramethyl-3-(2,5,8,11,14,17,20,23,26,29,32,35,38,41,44, 47,50,53,56,59,62,65,68,71,74,77,80,83,86,89, 92,95,98,101,104,107,110,113,116-nonatriacontaoxaoctadecahectan-118-yl)imidazolidin-4-one], the MBC in series [1] (pH 4 acetate) came to 32 µg/mL (≈ 16.8 µM); in series [1] (pH 7 phosphate), 2050 µg/mL (≈ 1070 µM); in series [4] (pH 4 acetate), 8 µg/mL (≈ 4.19 µM); in series [4] (pH 7 phosphate), 4100 µg/mL (≈ 2150 µM). The “CT50 L929 cells” value in series [2] came out at 11.3 mM. For the same compound, the MFC in series [3] (pH 4 acetate) was 256 µg/mL (≈ 134 µM); in series [3] (pH 7 phosphate) it was greater than 2050 µg/mL.

With `CC1(C)C(CO)OC(=O)N1Cl` (centres unmarked) [Compound 39-122, 3-chloro-5-(hydroxymethyl)-4,4-dimethyloxazolidin-2-one], the MBC was 2 µg/mL (≈ 11.1 µM) in series [1] (pH 4 acetate), 2 µg/mL (≈ 11.1 µM) in series [1] (pH 7 phosphate), 4 µg/mL (≈ 22.3 µM) in series [4] (pH 4 acetate) and 4 µg/mL (≈ 22.3 µM) in series [4] (pH 7 phosphate). Further, the “CT50 L929 cells” value in series [2] is reported as 0.14 mM. For the same compound, the MFC in series [3] (pH 4 acetate) was greater than 512 µg/mL; in series [3] (pH 7 phosphate) it was 1020 µg/mL (≈ 5700 µM).

For `CN1CC(C)(CO)N(Cl)C1=O` (centres unmarked) [Compound 39-124, 3-chloro-4-(hydroxymethyl)-1,4-dimethylimidazolidin-2-one], the MBC was determined as 16 µg/mL (≈ 89.6 µM) in series [1] (pH 4 acetate), 8 µg/mL (≈ 44.8 µM) in series [1] (pH 7 phosphate), 16 µg/mL (≈ 89.6 µM) in series [4] (pH 4 acetate) and 32 µg/mL (≈ 179 µM) in series [4] (pH 7 phosphate). In addition, the “CT50 L929 cells” value in series [2] amounted to 0.33 mM. Also, the results for the MFC in series [3] (pH 4 acetate) and in series [3] (pH 7 phosphate) were 8 µg/mL (≈ 44.8 µM) and greater than 1020 µg/mL, respectively.

For `CC1(C)C(=O)N(CCCCO)C(C)(C)N1Cl` [Compound 39-125, 1-chloro-3-(4-hydroxybutyl)-2,2,5,5-tetramethylimidazolidin-4-one], the minimum bactericidal concentration (MBC) came to 2 µg/mL (≈ 8.04 µM) in series [1] (pH 4 acetate), 32 µg/mL (≈ 129 µM) in series [1] (pH 7 phosphate), 2 µg/mL (≈ 8.04 µM) in series [4] (pH 4 acetate) and 256 µg/mL (≈ 1030 µM) in series [4] (pH 7 phosphate). Besides, the “CT50 L929 cells” value in series [2] worked out at 2.21 mM. Moreover, the MFC is 128 µg/mL (≈ 515 µM) in series [3] (pH 4 acetate) and greater than 1020 µg/mL in series [3] (pH 7 phosphate).

In general, MBC refers to the smallest concentration meeting the test's criterion for killing. Low values mean more potent killing, high ones less potent killing. Broadly, the MFC is the lowest tested concentration that kills the fungus rather than only halting it. The low end stands for greater fungicidal potency, the high end for weaker fungicidal potency.
